Laboratory results from US10407467B2, “Polymyxin derivatives and their use in combination therapy together with different antibiotics” (priority 2013, dated 2019).
Bridge positions count the residues as written; N and C are the ends. Square brackets hold non-standard residues; d marks the D form. Peptide text beside a SMILES is read from it. * marks the point of attachment. ξ: configuration not given here. ξβ3hGly(cHex) = NC(CC(=O)*)C1CCCCC1; Thr(3ξ) = CC(O)[C@H](N)C(=O)O; Dab = NCC[C@H](N)C(=O)O

Columns and labels:
Assay in all cases: MIC, compound in combination with a second agent (broth microdilution)
Type in all cases: cell-based
Acinetobacter baumannii = test system: Acinetobacter baumannii
How it was run: (§1)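 Broth microdilution with inoculum from 18-24 h Mueller-Hinton agar colonies adjusted to 0.5 McFarland, up to four strains per species. Compound combined 1:1 w/w with second agent (e.g. rifampicin), mass as salt form; MIC is total drug concentration. Duplicates, lower value reported if within 2-fold; modal value for repeat tests.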

Escherichia coli = test system: Escherichia coli
How it was run: as §1

Klebsiella pneumoniae = test system: Klebsiella pneumoniae
How it was run: as §1

Pseudomonas aeruginosa = test system: Pseudomonas aeruginosa
How it was run: as §1

[1] = 1:1 combination with Aztreonam, total drug concentration
[2] = 1:1 combination with Ciprofloxacin (by row order), total drug concentration
[3] = 1:1 combination with Ciprofloxacin, total drug concentration
[4] = 1:1 combination with Tigecycline, total drug concentration
[5] = 1:1 combination with Vancomycin, total drug concentration
[6] = Ratio of Compound to Rifampicin 1:1, total drug concentration
[7] = Ratio of Compound to Rifampicin 1:3, total drug concentration

CC(C)C[C@@H]1NC(=O)[C@@H](Cc2ccccc2)NC(=O)[C@H](CCN)NC(=O)[C@@H](NC(=O)[C@H](CCN)NC(=O)[C@@H](NC(=O)CC(N)C2CCCCC2)C(C)O)CCNC(=O)[C@H](C(C)O)NC(=O)[C@H](CCN)NC(=O)[C@H](CCN)NC1=O (stereo partly drawn) [Example 10, [3(R,S)-3-Amino-3-cyclohexane-propanoyl]Polymyxin B nonapeptide] ({ξβ3hGly(cHex)}-[Thr(3ξ)][Dab][Dab][Dab][dF]L[Dab][Dab][Thr(3ξ)]; lactam 3-C)
MIC A. baumannii ATCC BAA-747 (Acinetobacter baumannii; 1:1 (wt:wt) combination with Rifampicin, MIC = total drug concentration, strain ATCC BAA-747): 0.25 micrograms/mL | MIC A. baumannii CCUG57249 (Acinetobacter baumannii; 1:1 (wt:wt) combination with Rifampicin, MIC = total drug concentration, strain CCUG57249): 0.125 micrograms/mL | MIC A. baumannii NCTC 13423 (Acinetobacter baumannii; 1:1 (wt:wt) combination with Rifampicin, MIC = total drug concentration, strain NCTC 13423): 0.125 micrograms/mL | MIC A. baumannii NCTC 13424 (Acinetobacter baumannii; 1:1 (wt:wt) combination with Rifampicin, MIC = total drug concentration, strain NCTC 13424): 0.125 micrograms/mL | MIC A. baumannii NCTC 13424 (Acinetobacter baumannii; [1]): 1 micrograms/mL | MIC A. baumannii NCTC 13424 (Acinetobacter baumannii; [2]): 0.5 micrograms/mL | MIC A. baumannii NCTC 13424 (Acinetobacter baumannii; A. baumannii NCTC 13424, 1:1 combination with Azithromycin, total drug concentration): 1 micrograms/mL | MIC E. coli ATCC25922 (Escherichia coli; 1:1 (wt:wt) combination with Rifampicin, MIC = total drug concentration, strain ATCC25922): 0.125 micrograms/mL | MIC E. coli NCTC9001 (Escherichia coli; 1:1 (wt:wt) combination with Rifampicin, MIC = total drug concentration, strain NCTC9001): 0.125 micrograms/mL | MIC E. coli ATCC25922 (Escherichia coli; [1]): 0.125 micrograms/mL | MIC E. coli NCTC 13441 (Escherichia coli; [1]): 2 micrograms/mL | MIC E. coli ATCC25922 (Escherichia coli; [3]): ≤0.06 micrograms/mL | MIC E. coli CCUG 59342 (Escherichia coli; [3]): 1 micrograms/mL | MIC E. coli NCTC9001 (Escherichia coli; [3]): ≤0.06 micrograms/mL | MIC E. coli NCTC9001 (Escherichia coli; [4]): 8 micrograms/mL | MIC E. coli NCTC9001 (Escherichia coli; [5]): 16 microgram/mL | MIC E. coli ATCC25922 (Escherichia coli; E. coli ATCC25922, 1:1 combination with Azithromycin, total drug concentration): 0.125 micrograms/mL | MIC E. coli ATCC25922 (Escherichia coli; E. coli ATCC25922, 1:1 combination with Fusidic acid, total drug concentration): 1 micrograms/mL | MIC E. coli ATCC25922 (Escherichia coli; E. coli ATCC25922, 1:1 combination with Novobiocin, total drug concentration): 0.5 micrograms/mL | MIC E. coli ATCC25922 (Escherichia coli; E. coli ATCC25922, 1:1 combination with Oxacillin, total drug concentration): 8 micrograms/mL | MIC E. coli NCTC9001 (Escherichia coli; E. coli NCTC9001, 1:1 combination with Meropenem, total drug concentration): 0.5 micrograms/mL | MIC E. coli NCTC 13441 (Escherichia coli; E. coli NCTC 13441, 1:1 combination with Azithromycin, total drug concentration): 2 micrograms/mL | MIC E. coli NCTC 13441 (Escherichia coli; E. coli NCTC 13441, 1:1 combination with Novobiocin, total drug concentration): 0.5 micrograms/mL | MIC K. pneumoniae ATCC 4352 (Klebsiella pneumoniae; 1:1 (wt:wt) combination with Rifampicin, MIC = total drug concentration, strain ATCC 4352): ≤0.06 micrograms/mL | MIC K. pneumoniae ATCC-BAA-2146 (Klebsiella pneumoniae; 1:1 (wt:wt) combination with Rifampicin, MIC = total drug concentration, strain ATCC-BAA-2146): 0.5 micrograms/mL | MIC K. pneumoniae CCUG-59348 (Klebsiella pneumoniae; 1:1 (wt:wt) combination with Rifampicin, MIC = total drug concentration, strain CCUG-59348): 1 micrograms/mL | MIC K. pneumoniae NCTC 13438 (Klebsiella pneumoniae; 1:1 (wt:wt) combination with Rifampicin, MIC = total drug concentration, strain NCTC 13438): 0.5 micrograms/mL | MIC K. pneumoniae ATCC 4352 (Klebsiella pneumoniae; [1]): ≤0.06 micrograms/mL | MIC K. pneumoniae CCUG 59349 (Klebsiella pneumoniae; [1]): 4 micrograms/mL | MIC K. pneumoniae ATCC 4352 (Klebsiella pneumoniae; [2]): ≤0.06 micrograms/mL | MIC K. pneumoniae ATCC BAA-1706 (Klebsiella pneumoniae; [2]): 0.25 micrograms/mL | MIC K. pneumoniae CCUG 59348 (Klebsiella pneumoniae; [3]): 32 micrograms/mL | MIC K. pneumoniae NCTC 13442 (Klebsiella pneumoniae; [3]): 1 micrograms/mL | MIC K. pneumoniae CCUG 59348 (Klebsiella pneumoniae; [4]): >32 micrograms/mL | MIC K. pneumoniae NCTC 13442 (Klebsiella pneumoniae; [4]): 16 micrograms/mL | MIC K. pneumoniae CCUG 59348 (Klebsiella pneumoniae; [5]): >32 microgram/mL | MIC K. pneumoniae NCTC 13442 (Klebsiella pneumoniae; [5]): 4 microgram/mL | MIC K. pneumoniae ATCC 4352 (Klebsiella pneumoniae; K. pneumoniae ATCC4352, 1:1 combination with Azithromycin, total drug concentration): 0.125 micrograms/mL | MIC K. pneumoniae ATCC 4352 (Klebsiella pneumoniae; K. pneumoniae ATCC4352, 1:1 combination with Fusidic acid, total drug concentration): 0.5 micrograms/mL | MIC K. pneumoniae ATCC 4352 (Klebsiella pneumoniae; K. pneumoniae ATCC4352, 1:1 combination with Novobiocin, total drug concentration): 0.125 micrograms/mL | MIC K. pneumoniae ATCC BAA-1706 (Klebsiella pneumoniae; K. pneumoniae ATCC BAA-1706, 1:1 combination with Meropenem, total drug concentration): 4 micrograms/mL | MIC K. pneumoniae CCUG 59348 (Klebsiella pneumoniae; K. pneumoniae CCUG 59348, 1:1 combination with Meropenem, total drug concentration): >32 micrograms/mL | MIC K. pneumoniae CCUG 59349 (Klebsiella pneumoniae; K. pneumoniae CCUG 59349, 1:1 combination with Azithromycin, total drug concentration): 4 micrograms/mL | MIC K. pneumoniae CCUG 59349 (Klebsiella pneumoniae; K. pneumoniae CCUG 59349, 1:1 combination with Novobiocin, total drug concentration): 1 micrograms/mL | MIC K. pneumoniae NCTC 13442 (Klebsiella pneumoniae; K. pneumoniae NCTC 13442, 1:1 combination with Meropenem, total drug concentration): 16 micrograms/mL | MIC K. pneumoniae ATCC-BAA-2146 (Klebsiella pneumoniae; [6]): 0.5 micrograms/mL | MIC K. pneumoniae CCUG-59348 (Klebsiella pneumoniae; [6]): 1 micrograms/mL | MIC K. pneumoniae NCTC 13438 (Klebsiella pneumoniae; [6]): 0.5 micrograms/mL | MIC K. pneumoniae ATCC-BAA-2146 (Klebsiella pneumoniae; [7]): 0.5 micrograms/mL | MIC K. pneumoniae CCUG-59348 (Klebsiella pneumoniae; [7]): 1 micrograms/mL | MIC K. pneumoniae NCTC 13438 (Klebsiella pneumoniae; [7]): 0.5 micrograms/mL | MIC P. aeruginosa ATCC 27853 (Pseudomonas aeruginosa; 1:1 (wt:wt) combination with Rifampicin, MIC = total drug concentration, strain ATCC 27853): 1 micrograms/mL | MIC P. aeruginosa ATCC-47 (Pseudomonas aeruginosa; 1:1 (wt:wt) combination with Rifampicin, MIC = total drug concentration, strain ATCC-47): 0.25 micrograms/mL | MIC P. aeruginosa CCUG 59626 (Pseudomonas aeruginosa; 1:1 (wt:wt) combination with Rifampicin, MIC = total drug concentration, strain CCUG 59626): 0.25 micrograms/mL | MIC P. aeruginosa ATCC 10145 (Pseudomonas aeruginosa; [1]): 1 micrograms/mL | MIC P. aeruginosa ATCC 27853 (Pseudomonas aeruginosa; [2]): 0.125 micrograms/mL | MIC P. aeruginosa CCUG 59626 (Pseudomonas aeruginosa; [2]): 0.5 micrograms/mL | MIC P. aeruginosa CCUG 59626 (Pseudomonas aeruginosa; [4]): 1 micrograms/mL | MIC P. aeruginosa ATCC 10145 (Pseudomonas aeruginosa; P. aeruginosa ATCC 10145, 1:1 combination with Azithromycin, total drug concentration): 1 micrograms/mL | MIC P. aeruginosa ATCC 10145 (Pseudomonas aeruginosa; P. aeruginosa ATCC 10145, 1:1 combination with Novobiocin, total drug concentration): 0.5 micrograms/mL
